PMC12211128, “Safety, tolerability, pharmacokinetic and pharmacodynamic effects of the muscarinic M1 positive allosteric modulator VU0467319 for Alzheimer’s disease: a single ascending-dose study in healthy participants” (Alzheimer's Research & Therapy, 2025)
Marks after values point to notes of the source that are not given here.

Columns and labels:
healthy participants [1] = test: Auditory oddball ERP task; assay type: in vivo, human; settings: for Auditory oddball P300 amplitude, targets vs standards, effect size d: post-dose session; for Mean amplitude over the parietal cortex, Auditory Oddball, Standard trials / Mean amplitude over the parietal cortex, Auditory Oddball, Target trials: mean (SD)
Experimental: (§1) Following the cognitive battery, an electrophysiology recording was set up. Visual and auditory ERPs were recorded using a 128-channel Geodesic sensor net (EGI, Inc., Eugene, OR; [37, 38]). The electrophysiological recording was sampled at 250 Hz with filters set at 0.1–100 Hz. During data collection, all electrodes were referenced to vertex (Cz). The recording session lasted approximately 30 min.
Auditory and visual oddball tasks were performed to assess attention in auditory and visual modalities. In the auditory task, a pair of two pure tones (single formant) at 1000 and 1500 Hz were the stimuli. In the visual task, the stimuli were a pair of letters (X & O). The assignment of stimuli to standard and target conditions (70% & 30% of the trials respectively), was counterbalanced across participants. Each participant was asked to press a different button using their preferred hand upon presentation of the standard and the target stimulus. On average, auditory and visual tasks lasted 6–7 min each.
(§2) ERP processing and Analysis: Single-trial ERPs were derived by extracting a 100-ms pre-stimulus baseline and a 900 ms post-stimulus interval. The trials were screened for ocular and motor artifacts using automated procedures with standard threshold settings (NetStation 4.4, EGI, Inc) and verified using manual review. Data for electrodes characterized by consistent artifacts were replaced using the spherical spline interpolation algorithm. If more than 15 electrodes within a trial were noisy, the entire trial was discarded. Remaining artifact-free trials were averaged separately for each condition (standard vs. oddball; novel vs. repeated images), re-referenced to an average reference, and baseline corrected. For individual participant’s data to be included in the analysis, each condition average had to have a minimum of 10 artifact-free trials.
(§3) Statistical analysis focused on a priori selected electrode clusters corresponding to frontal, central, and parietal midline locations (Fz, Cz, Pz in 10–20 notation), confirmed using spatial principal components analysis. Mean amplitudes were calculated within 250–400 ms (frontal P3a), 300–500 ms (parietal P300), and 500–800 ms (parietal P600) temporal windows. These a-priori selected windows were confirmed using temporal principal components analysis.
(§4) Analyses for the auditory and visual oddball ERPs focused on the parietal (P300) and frontal (P3a) responses to standard and target stimuli. Differences in the amplitude, latency, and scalp topography of the responses were examined. […] For the incidental memory paradigm, differences in the mean amplitude of the parietal P300/P600 responses to repeated vs. novel presentations. The amplitude of the parietal P300/P600 waveform measures stimulus recognition. A larger positive amplitude for repeated compared to novel images indicates spontaneous formation of a memory trace.
Auditory and visual oddball tasks were performed to assess attention in auditory and visual modalities (Comerchero & Polich, 1999; Polich, 2007). In the auditory task, a pair of two pure tones (single formant) at 1000 and 1500 Hz were the stimuli. Tones were equated in duration (300 ms) and rise/decay times. Tones were presented at 75 dB SPL (measured at the ear) through a speaker positioned 1 meter in front of the participant. In the visual task, the stimuli were a pair of letters (X & O). All stimuli were presented in random order for 500 ms in the center of a computer monitor positioned 1 meter in front of the participant. For both auditory and visual tasks, 200 trials were presented with the inter-stimulus interval varying randomly between 1000-1300 ms to prevent habituation to stimulus onset. The assignment of stimuli to standard and target conditions (70% & 30% of the trials respectively), was counterbalanced across participants. […]

healthy participants [2] = test: Incidental visual memory ERP paradigm; assay type: in vivo, human; settings: for Mean amplitude over the parietal cortex, Incidental Memory task, Novel trials / Mean amplitude over the parietal cortex, Incidental Memory task, Repeat trials: mean (SD)
Experimental: as §1
(§5) A passive incidental visual memory paradigm (120 trials, 8 min; [38]) was used to evaluate changes in basic memory processes. Participants were asked to view a slide show of novel color photographs depicting complex natural scenes (different sets of images were used at pre-dose vs. post-dose administration test sessions). A small subset (n = 10) of the stimuli was presented repeatedly (× 5 each) throughout the session; the rest (n = 50) were shown once. To encourage attention to the stimulus sequence, 20 attention probes (a yellow smiley face) were presented throughout the test session and required a button press response. The task duration was approximately 7 min.
as §2, §3, §4
as §5, with “(Key & Dykens, 2014))” for “[38])”, “once. All stimuli were presented in random order for 1500 ms with a random interstimulus interval of 1300-1600 ms.” for “once.”, “minutes.” for “min.”

[3] = VU319 120 mg, fasting, post-drug session, n = 9
[4] = VU319 120 mg, fasting, pre-drug session, n = 9
[5] = VU319 120 mg, fed, post-drug session, n = 9
[6] = VU319 120 mg, fed, pre-drug session, n = 9
[7] = SAD study, 120mg, Pre-Drug, n = 5
[8] = VU319 120 mg, fasting, post-drug session
[9] = VU319 120 mg, fasting, pre-drug session
[10] = VU319 120 mg, fed, post-drug session
[11] = VU319 120 mg, fed, pre-drug session

Cn1cc2c(-c3cc(F)c(CN4Cc5ncccc5C4=O)c(F)c3)cccc2n1 [VU319]
Auditory oddball parietal amplitude, target vs standard, post- vs pre-dose, effect size d (healthy participants [1]; 60 mg, p = 0.002): 1.32
Auditory oddball parietal amplitude, target vs standard, post- vs pre-dose, effect size d (healthy participants [1]; 120 mg, SAD, p = 0.18): 0.64
Auditory oddball P300 amplitude, targets vs standards, effect size d (healthy participants [1]; 120 mg, fasted, p = 0.033): 0.8
Auditory oddball P300 amplitude, targets vs standards, effect size d (healthy participants [1]; 120 mg, fed, p = 0.25): 0.85
Mean amplitude over the parietal cortex, Auditory Oddball, Standard trials (healthy participants [1]; SAD study, 60 mg, Post-Drug): 1.31 (1.02) µV
Mean amplitude over the parietal cortex, Auditory Oddball, Target trials (healthy participants [1]; SAD study, 60 mg, Post-Drug): 3.69 (1.83) µV
Mean amplitude over the parietal cortex, Auditory Oddball, Standard trials (healthy participants [1]; SAD study, 60 mg, Pre-Drug): 1.23 (0.96) µV
Mean amplitude over the parietal cortex, Auditory Oddball, Target trials (healthy participants [1]; SAD study, 60 mg, Pre-Drug): 2.0 (1.32) µV
Mean amplitude over the parietal cortex, Auditory Oddball, Standard trials (healthy participants [1]; SAD study, 120 mg, Post-Drug): 0.85 (1.41) µV
Mean amplitude over the parietal cortex, Auditory Oddball, Target trials (healthy participants [1]; SAD study, 120 mg, Post-Drug): 3.18 (1.24) µV
Mean amplitude over the parietal cortex, Auditory Oddball, Standard trials (healthy participants [1]; SAD study, 120 mg, Pre-Drug): 1.83 (1.04) µV
Mean amplitude over the parietal cortex, Auditory Oddball, Target trials (healthy participants [1]; SAD study, 120 mg, Pre-Drug): 3.23 (1.85) µV
Mean amplitude over the parietal cortex, Auditory Oddball, Standard trials (healthy participants [1]; SAD study, 240 mg, Post-Drug): 1.04 (1.54) µV
Mean amplitude over the parietal cortex, Auditory Oddball, Target trials (healthy participants [1]; SAD study, 240 mg, Post-Drug): 2.42 (1.53) µV
Mean amplitude over the parietal cortex, Auditory Oddball, Standard trials (healthy participants [1]; SAD study, 240 mg, Pre-Drug): 1.34 (1.02) µV
Mean amplitude over the parietal cortex, Auditory Oddball, Target trials (healthy participants [1]; SAD study, 240 mg, Pre-Drug): 2.94 (1.57) µV
Mean amplitude over the parietal cortex, Auditory Oddball, Standard trials (healthy participants [1]; SAD study, 400 mg, Post-Drug): 0.48 (0.92) µV
Mean amplitude over the parietal cortex, Auditory Oddball, Target trials (healthy participants [1]; SAD study, 400 mg, Post-Drug): 2.12 (0.34) µV
Mean amplitude over the parietal cortex, Auditory Oddball, Standard trials (healthy participants [1]; SAD study, 400 mg, Pre-Drug): 0.66 (1.09) µV
Mean amplitude over the parietal cortex, Auditory Oddball, Target trials (healthy participants [1]; SAD study, 400 mg, Pre-Drug): 1.7 (0.67) µV
Mean amplitude over the parietal cortex, Auditory Oddball, Standard trials (healthy participants [1]; SAD study, 600 mg, Post-Drug): 1.84 (1.22) µV
Mean amplitude over the parietal cortex, Auditory Oddball, Target trials (healthy participants [1]; SAD study, 600 mg, Post-Drug): 4.31 (2.13) µV
Mean amplitude over the parietal cortex, Auditory Oddball, Standard trials (healthy participants [1]; SAD study, 600 mg, Pre-Drug): 0.74 (1.24) µV
Mean amplitude over the parietal cortex, Auditory Oddball, Target trials (healthy participants [1]; SAD study, 600 mg, Pre-Drug): 3.08 (2.61) µV
Mean amplitude over the parietal cortex, Auditory Oddball, Standard trials (healthy participants [1]; [3]): 1.17 (1.66) µV
Mean amplitude over the parietal cortex, Auditory Oddball, Target trials (healthy participants [1]; [3]): 2.56 (2.38) µV
Mean amplitude over the parietal cortex, Auditory Oddball, Standard trials (healthy participants [1]; [4]): 1.09 (1.78) µV
Mean amplitude over the parietal cortex, Auditory Oddball, Target trials (healthy participants [1]; [4]): 2.11 (2.11) µV
Mean amplitude over the parietal cortex, Auditory Oddball, Standard trials (healthy participants [1]; [5]): -0.07 (0.96) µV
Mean amplitude over the parietal cortex, Auditory Oddball, Target trials (healthy participants [1]; [5]): 0.8 (1.11) µV
Mean amplitude over the parietal cortex, Auditory Oddball, Standard trials (healthy participants [1]; [6]): 0.51 (1.65) µV
Mean amplitude over the parietal cortex, Auditory Oddball, Target trials (healthy participants [1]; [6]): 2.32 (1.46) µV
Incidental memory, novel vs repeated images (healthy participants [2]; 120 mg, fasted condition, either session, both p > 0.2): did not show a difference
Incidental memory parietal P300/P600 amplitude, repeated vs novel, effect size d (healthy participants [2]; 120 mg, fed condition, p = 0.018): 0.91
Incidental memory parietal P300/P600 amplitude, repeated vs novel, effect size d (healthy participants [2]; 400 mg, p = 0.098): 0.83
Incidental memory parietal P300/P600 amplitude, repeated vs novel, effect size d (healthy participants [2]; 600 mg, p = 0.09): 0.86
Incidental memory P300/P600 amplitude, repeated vs novel, higher two doses compared to placebo, effect size d (healthy participants [2]; 400 and 600 mg): > 0.8
Mean amplitude over the parietal cortex, Incidental Memory task, Novel trials (healthy participants [2]; SAD study, 60 mg, Post-Drug): 0.87 (1.92) µV
Mean amplitude over the parietal cortex, Incidental Memory task, Repeat trials (healthy participants [2]; SAD study, 60 mg, Post-Drug): 1.25 (1.02) µV
Mean amplitude over the parietal cortex, Incidental Memory task, Novel trials (healthy participants [2]; SAD study, 60 mg, Pre-Drug): 0.49 (2.16) µV
Mean amplitude over the parietal cortex, Incidental Memory task, Repeat trials (healthy participants [2]; SAD study, 60 mg, Pre-Drug): 0.77 (1.85) µV
Mean amplitude over the parietal cortex, Incidental Memory task, Novel trials (healthy participants [2]; SAD study, 120 mg, Post-Drug): 1.67 (2.01) µV
Mean amplitude over the parietal cortex, Incidental Memory task, Repeat trials (healthy participants [2]; SAD study, 120 mg, Post-Drug): 2.16 (1.69) µV
Mean amplitude over the parietal cortex, Incidental Memory task, Novel trials (healthy participants [2]; [7]): 2.3 (1.78)^# µV
Mean amplitude over the parietal cortex, Incidental Memory task, Repeat trials (healthy participants [2]; [7]): 2.66 (2.5)^# µV
Mean amplitude over the parietal cortex, Incidental Memory task, Novel trials (healthy participants [2]; SAD study, 240 mg, Post-Drug): 1.76 (1.4) µV
Mean amplitude over the parietal cortex, Incidental Memory task, Repeat trials (healthy participants [2]; SAD study, 240 mg, Post-Drug): 2.19 (1.37) µV
Mean amplitude over the parietal cortex, Incidental Memory task, Novel trials (healthy participants [2]; SAD study, 240 mg, Pre-Drug): 1.22 (1.44) µV
Mean amplitude over the parietal cortex, Incidental Memory task, Repeat trials (healthy participants [2]; SAD study, 240 mg, Pre-Drug): 2.14 (1.27) µV
Mean amplitude over the parietal cortex, Incidental Memory task, Novel trials (healthy participants [2]; SAD study, 400 mg, Post-Drug): 2.45 (1.79) µV
Mean amplitude over the parietal cortex, Incidental Memory task, Repeat trials (healthy participants [2]; SAD study, 400 mg, Post-Drug): 3.14 (2.3) µV
Mean amplitude over the parietal cortex, Incidental Memory task, Novel trials (healthy participants [2]; SAD study, 400 mg, Pre-Drug): 2.35 (1.07) µV
Mean amplitude over the parietal cortex, Incidental Memory task, Repeat trials (healthy participants [2]; SAD study, 400 mg, Pre-Drug): 1.91 (1.19) µV
Mean amplitude over the parietal cortex, Incidental Memory task, Novel trials (healthy participants [2]; SAD study, 600 mg, Post-Drug): 1.98 (0.97) µV
Mean amplitude over the parietal cortex, Incidental Memory task, Repeat trials (healthy participants [2]; SAD study, 600 mg, Post-Drug): 3.17 (1.37) µV
Mean amplitude over the parietal cortex, Incidental Memory task, Novel trials (healthy participants [2]; SAD study, 600 mg, Pre-Drug): 2.47 (1.3) µV
Mean amplitude over the parietal cortex, Incidental Memory task, Repeat trials (healthy participants [2]; SAD study, 600 mg, Pre-Drug): 2.74 (1.63) µV
Mean amplitude over the parietal cortex, Incidental Memory task, Novel trials (healthy participants [2]; [8]): 1.0 (1.39) µV
Mean amplitude over the parietal cortex, Incidental Memory task, Repeat trials (healthy participants [2]; [8]): 1.48 (1.3) µV
Mean amplitude over the parietal cortex, Incidental Memory task, Novel trials (healthy participants [2]; [9]): 1.34 (1.09) µV
Mean amplitude over the parietal cortex, Incidental Memory task, Repeat trials (healthy participants [2]; [9]): 1.46 (1.45) µV
Mean amplitude over the parietal cortex, Incidental Memory task, Novel trials (healthy participants [2]; [10]): 1.04 (1.81) µV
Mean amplitude over the parietal cortex, Incidental Memory task, Repeat trials (healthy participants [2]; [10]): 2.43 (1.59) µV
Mean amplitude over the parietal cortex, Incidental Memory task, Novel trials (healthy participants [2]; [11]): 1.0 (0.95) µV
Mean amplitude over the parietal cortex, Incidental Memory task, Repeat trials (healthy participants [2]; [11]): 0.88 (2.27) µV
